Source: patent US9983200B2, “Compositions and methods for predicting age of onset of a lysosomal storage disease or a disease associated with a lysosomal defect” (The United States of America, as represented by the …, priority 2013, dated 2018)
Entries after “also recorded” stand apart in the source; their conditions may differ.

What was measured:
[1] = system: fibroblasts isolated from an individual with NPC1 disease (NPC-25); assay: LysoTracker Red staining quantified by FACS in NPC1 patient fibroblasts; assay type: cell-based, human; details: for LysoTracker Red staining intensity (NPC1-associated cholesterol storage defects): NPC-25 cells; for increased LysoTracker staining in NPC1 patient fibroblasts: Example 2, FIGS. 8 and 9; for fold change in fluorescence (stained/unstained): NPD patient samples, Example 1, FIGS. 4, 5A, 5B; for normalizing fold-change in fluorescence in cells of NPD subjects: in vitro
Protocol: (D) Bar graphs showing the percentage change of LysoTracker (y-axis) staining intensity in untreated NPC-25 cells (blue bar, set to 100%) as compared to NPC25 cells treated with MβCD, α-T or δ-T (green bars). […] MβCD (Sigma-Aldrich, St. Louis, Mo. cat. #C4555) was resuspended in sterile H2O to a 1 mM stock solution, while α-T and δ-T were dissolved in DMSO to 40 μM, therefore the untreated controls were no drug added for methyl-β-cyclodextrin treatment, and DMSO only added for α-T and δ-T treatment. Statistical analyses performed using Prism (GraphPad).
Cells were cultured in DMEM with fetal bovine serum, L-glutamine, and antibiotics at 5% CO2 in a 37° C. incubator. Cell staining was carried out as follows: Lysotracker-Red Staining Protocol: • Day1—Change media 24 hours before FACS analysis, if treating cells with methyl beta cyclodextrin add the drug as well. • Day2—Note: WORK IN THE DARK, (PROTECT TUBES FROM THE LIGHT while using lysotracker-red) • Dilute LYSOTRACKER-red (1:1000) for a final concentration of 1 μM with culture media. • Incubate cells with lysotracker in the incubator (37° C.) for 30 minutes. • Aspirate media and wash twice with 1×PBS (2 mls each time). • Add 300 μls of Trypsin • Resuspend cells into 5 mls of media and centrifuge at 1000 rpm for 10 minutes in order to obtain pellet. • Resuspend the pellet into 500 uls of media and transfer to FACS vials at 4° C. in the dark. • Perform FACS analysis.
The fluorescence of the cell samples was quantified before and after staining and the fold change in fluorescence was calculated as the ratio of fluorescent intensity after dye/cell autofluorescence. This change was then plotted as a function of time.
Cells were plated onto 60 mm tissue culture dishes and cultured to 70-80% confluency. Media were replaced 24 h prior to analysis. On the day of analysis, cells were incubated at 37° C. for 30 min in fresh media containing 1 μM LysoTracker Red dye (LysoTracker) in 3 mL medium/60 mm dish. Cells were then given two PBS washes, trypsinized, pelleted and resuspended in 500 μL medium. FACS data were collected on 10,000 cells using a FACSCalibur (Becton Dickinson Biosciences, Franklin Lakes, N.J.) equipped with Cell Quest software and analyzed using FlowJo (Tree Star). Fold change in LysoTracker staining was calculated as the ratio of geometric means of stained/unstained samples. Duplicate biological replicates were analyzed on three different days, totaling 6 independent samples per cell line.

cultured cells = details: cited from earlier work
[2] = system: fibroblasts (NPC1, NPC2, Wolman, Batten, Fabry, Farber, Niemann-Pick A, Sanfilippo type B, Tay-Sachs diseases); details: 40 μM, fibroblasts of NPC1, NPC2, Wolman; cited from earlier work
[3] = system: control fibroblasts (CTL1); assay: LysoTracker Red staining quantified by FACS in control (wild type) fibroblasts; assay type: cell-based, human; details: wild type samples, Example 1, FIGS. 4, 5A
Protocol: (A, B) Histograms of FACS analysis of control fibroblasts (A, CTL1) and fibroblasts isolated from an individual with NPC1 disease (B, NPC-25). […] Pink line indicates distribution of unstained cells; blue line indicates LysoTracker-stained cells transfected with an empty control vector (pLenti6.2 Vector/V5 DEST, Invitrogen); green line indicates LysoTracker-stained cells transfected with a human NPC1 cDNA expression vector (Origene, Rockville, Md.; cat. #SC120010). At 72 hours post-transfection, cells were stained with LysoTracker Red dye and analyzed by FACS. […]
The fluorescence of the cell samples was quantified before and after staining and the fold change in fluorescence was calculated as the ratio of fluorescent intensity after dye/cell autofluorescence. […]
Cells were plated onto 60 mm tissue culture dishes and cultured to 70-80% confluency. […] FACS data were collected on 10,000 cells using a FACSCalibur (Becton Dickinson Biosciences, Franklin Lakes, N.J.) equipped with Cell Quest software and analyzed using FlowJo (Tree Star). Fold change in LysoTracker staining was calculated as the ratio of geometric means of stained/unstained samples. Duplicate biological replicates were analyzed on three different days, totaling 6 independent samples per cell line.

[4] = system: fibroblasts isolated from an individual with NPC1 disease (NPC-25); assay: LysoTracker Red staining quantified by FACS in NPC1 patient fibroblasts; assay type: cell-based, human; details: NPC4 cells

Molecule	removal of cholesterol from cultured cells (cultured cells)	increased LysoTracker staining in NPC1 patient fibroblasts [1]	fold change in fluorescence (stained/unstained) [1]	normalizing fold-change in fluorescence in cells of NPD subjects [1]	other results
Cc1c(C)c2c(c(C)c1O)CC[C@@](C)(CCC[C@H](C)CCC[C@H](C)CCCC(C)C)O2 [α-T, α-tocopherol]					LysoTracker Red staining intensity (NPC1-associated cholesterol storage defects) ([1]; 40 μM α-T for 72 hours, vs DMSO only): not
OC[C@H]1O[C@@H]2O[C@H]3[C@H](O)[C@@H](O)[C@@H](O[C@H]4[C@H](O)[C@@H](O)[C@@H](O[C@H]5[C@H](O)[C@@H](O)[C@@H](O[C@H]6[C@H](O)[C@@H](O)[C@@H](O[C@H]7[C@H](O)[C@@H](O)[C@@H](O[C@H]8[C@H](O)[C@@H](O)[C@@H](O[C@H]1[C@H](O)[C@H]2O)O[C@@H]8CO)O[C@@H]7CO)O[C@@H]6CO)O[C@@H]5CO)O[C@@H]4CO)O[C@@H]3CO [β-cyclodextrin]	remove cholesterol				
Cc1cc(O)cc2c1O[C@](C)(CCC[C@H](C)CCC[C@H](C)CCCC(C)C)CC2 [δ-T, δ-tocopherol]		lessened			LysoTracker Red staining intensity (NPC1-associated cholesterol storage defects) ([1]; 40 μM δ-T for 72 hours, vs DMSO only): relieved NPC1-associated cholesterol storage defects; lysosomal storage defects (including LysoTracker staining) [2]: reduced lysosomal storage defects
Methyl-β-cyclodextrin [MβCD]	remove cholesterol; also recorded: more efficient than β-cyclodextrin	lessened	reduced		LysoTracker Red staining intensity (NPC1-associated cholesterol storage defects) ([1]; 300 μM MβCD for 24 hours, vs untreated cells (100%)): relieved NPC1-associated cholesterol storage defects; fold change in fluorescence (stained/unstained) [3]: reduced
Tocopherol			effective in reducing the fold change in fluorescence	useful in normalizing fold-change in fluorescence	
cyclodextrin				useful in normalizing fold-change in fluorescence; also recorded: normalize the fold-change in fluorescence	fluorescence values by FACS (FIG. 1A) [4]: corrected
